Data set [1] addresses T1, MCT4 (Homo sapiens (Human), UniProt O15427). The experiment in a line: Lactate transport in MCT4-expressing MDA-MB-453 breast cancer cells (BCECF). It counts as cell-based. Conditions: MDA-MB-453 cells stably expressing MCT4; 50 mM L-lactate. The protocol: Assay 1: Lactate Transport in MCT4-Expressing MDA-MB-453 Breast Cancer Cells. […] The following is an exemplary procedure for assaying MCT4 activity of the compounds of Formula (I). Preparing BCECF-Loaded Cells: […] The cells are pelleted (300 g, 5 min), washed once with 1 mL Tyrode's Solution, pH 7.4, re-pelleted (300 g, 5 min), and resuspended in 1 mL Tyrode's Solution, pH 7.4. Lactate Transport Assay: […] Fluorescence measurements are performed on a PerkinElmer LS55 fluorescence spectrometer with dual excitation wavelengths achieved using a filter wheel (FL Winlab program: Fast Filter; […] Emission 535). After establishing baseline BCECF fluorescence (around 10-20 s), 50 μL of 1 M sodium L-lactate (Sigma-Aldrich) is added to the cuvette (final concentration: 50 mM) and rapidly mixed.

Data set [2] deals with T1, MCT4. The experiment in a line: MCT4-mediated lactate transport in NCI-H358 lung adenocarcinoma cells. In kind it is cell-based. The note with it: native MCT4, 50 mM L-lactate. The procedure: Cells (˜7×10^6) are trypsinized (0.05% Trypsin-EDTA), pelleted (300 g, 5 min), and resuspended in 1 mL Tyrode's Solution, pH 7.4 (119 mM NaCl, 5 mM KCl, 25 mM HEPES, pH 7.4, 2 mM CaCl2, 2 mM MgCl2, 6 g/L glucose). 10 μL of a 30 mM DMSO stock of BCECF-AM ester (Life Technologies) is added and the cells are incubated at 37° C. for 5 min. The cells are pelleted (300 g, 5 min), washed once with 1 mL Tyrode's Solution, pH 7.4, re-pelleted (300 g, 5 min), and resuspended in 1 mL Tyrode's Solution, pH 7.4.
2.5 μL BCECF-loaded cells, along with either 10 μL DMSO or 100×compound in DMSO, are added to 937.5 μL of Tyrode's Solution in a quartz 1.0 mL cuvette (PerkinElmer, B0631116). Fluorescence measurements are performed on a PerkinElmer LS55 fluorescence spectrometer with dual excitation wavelengths achieved using a filter wheel (FL Winlab program: Fast Filter; Excitation 490/440; Emission 535). After establishing baseline BCECF fluorescence (around 10-20 s), 50 μL of 1 M sodium L-lactate (Sigma-Aldrich) is added to the cuvette (final concentration: 50 mM) and rapidly mixed. The time-dependent decrease in BCECF fluorescence (490/440 ratio) may be fit to an exponential decay curve (Prism GraphPad) to determine the rate of lactate transport.
Assay 2: MCT4-Mediated Lactate Transport in NCI-H358 Lung Adenocarcinoma Cells.
NCI-H358 lung adenocarcinoma cells may be used to measure MCT4 activity in cells with high native levels of MCT4 and low levels of MCT1 and are known to those with skill in the art. Preparation of BCECF-loaded cells and lactate transport activity may be determined as described for Assay 1.

Data set [3] deals with T1, MCT4. The experiment in a line: MCT4-mediated lactate transport in MDA-MB-231 breast cancer cells. In kind it is cell-based. The note with it: MDA-MB-231 cells, native MCT4; 50 mM L-lactate. The procedure: 10 μL of a 30 mM DMSO stock of BCECF-AM ester (Life Technologies) is added and the cells are incubated at 37° C. for 5 min. The cells are pelleted (300 g, 5 min), washed once with 1 mL Tyrode's Solution, pH 7.4, re-pelleted (300 g, 5 min), and resuspended in 1 mL Tyrode's Solution, pH 7.4.
2.5 μL BCECF-loaded cells, along with either 10 μL DMSO or 100×compound in DMSO, are added to 937.5 μL of Tyrode's Solution in a quartz 1.0 mL cuvette (PerkinElmer, B0631116). […] After establishing baseline BCECF fluorescence (around 10-20 s), 50 μL of 1 M sodium L-lactate (Sigma-Aldrich) is added to the cuvette (final concentration: 50 mM) and rapidly mixed. The time-dependent decrease in BCECF fluorescence (490/440 ratio) may be fit to an exponential decay curve (Prism GraphPad) to determine the rate of lactate transport.
Preparation of BCECF-loaded cells and lactate transport activity may be determined as described for Assay 1.

The nature of data set [4]: Metabolic stability in human liver microsomes. It counts as in vitro ADME. The note with it: human liver microsomes 0.5 mg/mL, 2 μM compound; remaining percentage of parent at 60 min. The protocol: (§1) Metabolic Stability Assays The following are assays that may be used to evaluate the metabolic stability of compounds of Formula (I) in human or mouse microsomes. 1. […] Two separated experiments were performed as follows. a) With NADPH: 10 μL of 20 mg/mL liver microsomes and 40 μL of 10 mM NADPH were added to the incubations. […] The final concentration of microsomes was 0.5 mg/mL. 3. The reaction was started with the addition of 4 μL of 200 μM control compound or test compound solutions. Verapamil was used as positive control in this study. The final concentration of test compound or control compound was 2 μM. 4. Aliquots of 50 μL were taken from the reaction solution at 0, 15, 30, 45 and 60 min. […] Samples were centrifuged at 3, 220 g for 40 minutes. Aliquot of 90 μL of the supernatant was mixed with 90 μL of ultra-pure H2O and then used for LC-MS/MS analysis. 5. Data analysis. All calculations were carried out using Microsoft Excel. Peak areas were determined from extracted ion chromatograms. The slope value, k, was determined by linear regression of the natural logarithm of the remaining percentage of the parent drug vs. incubation time curve. The in vitro half-life (in vitro t½) was determined from the slope value: in vitro t1/2=−(0.693)/k.

Another data set has as its target MCT1 (Homo sapiens (Human), UniProt P53985). The data set is described as follows: MCT1-mediated lactate transport in BT20 breast cancer cells. The note with it: native MCT1, 10 mM L-lactate. It counts as cell-based. Summed up:
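BT20 cells loaded with BCECF-AM (5 min, 37 °C) were placed in Tyrode's Solution, pH 7.4, with compound or DMSO in a cuvette. After baseline, 10 mM L-lactate was added, and the transport rate came from an exponential fit to the fall in BCECF fluorescence (490/440 ratio).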

A short description of data set [5]: Metabolic stability in mouse liver microsomes. It counts as in vitro ADME. Conditions: mouse liver microsomes 0.5 mg/mL, 2 μM compound; remaining percentage of parent at 60 min. The procedure:
as §1
Background: Microsomes from liver hold many membrane-bound enzymes, among them those of drug oxidation.

The text below walks through data of patent US10202350B2, “MCT4 inhibitors for treating disease” (Vettore, LLC, priority 2015, dated 2019).

Some results are limits rather than exact numbers.

T1 sequence (O15427 whole entry, looked up): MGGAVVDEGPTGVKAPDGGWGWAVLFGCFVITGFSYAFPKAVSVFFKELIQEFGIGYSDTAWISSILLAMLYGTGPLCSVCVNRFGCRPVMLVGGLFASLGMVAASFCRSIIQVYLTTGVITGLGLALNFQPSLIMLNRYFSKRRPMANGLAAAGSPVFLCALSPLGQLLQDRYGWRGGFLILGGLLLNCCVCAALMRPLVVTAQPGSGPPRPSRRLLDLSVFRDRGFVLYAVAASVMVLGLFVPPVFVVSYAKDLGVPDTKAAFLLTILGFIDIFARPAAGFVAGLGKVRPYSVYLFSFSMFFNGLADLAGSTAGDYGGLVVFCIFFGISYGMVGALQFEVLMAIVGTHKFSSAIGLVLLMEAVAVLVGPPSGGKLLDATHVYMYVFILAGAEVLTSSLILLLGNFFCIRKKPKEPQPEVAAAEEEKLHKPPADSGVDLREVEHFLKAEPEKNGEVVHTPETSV
T1 sequence (P35613 whole entry partner, looked up): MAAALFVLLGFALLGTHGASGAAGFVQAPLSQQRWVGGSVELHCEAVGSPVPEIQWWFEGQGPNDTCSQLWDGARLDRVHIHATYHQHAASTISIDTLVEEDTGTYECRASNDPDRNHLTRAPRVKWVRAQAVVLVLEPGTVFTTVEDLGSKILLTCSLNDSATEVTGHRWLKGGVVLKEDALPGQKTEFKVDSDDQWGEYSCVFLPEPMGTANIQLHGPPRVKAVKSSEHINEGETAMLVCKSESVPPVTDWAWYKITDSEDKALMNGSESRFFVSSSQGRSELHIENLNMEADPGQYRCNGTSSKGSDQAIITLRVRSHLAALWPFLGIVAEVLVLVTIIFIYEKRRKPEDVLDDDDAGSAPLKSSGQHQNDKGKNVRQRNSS
MCT1, sequence (P53985 whole entry): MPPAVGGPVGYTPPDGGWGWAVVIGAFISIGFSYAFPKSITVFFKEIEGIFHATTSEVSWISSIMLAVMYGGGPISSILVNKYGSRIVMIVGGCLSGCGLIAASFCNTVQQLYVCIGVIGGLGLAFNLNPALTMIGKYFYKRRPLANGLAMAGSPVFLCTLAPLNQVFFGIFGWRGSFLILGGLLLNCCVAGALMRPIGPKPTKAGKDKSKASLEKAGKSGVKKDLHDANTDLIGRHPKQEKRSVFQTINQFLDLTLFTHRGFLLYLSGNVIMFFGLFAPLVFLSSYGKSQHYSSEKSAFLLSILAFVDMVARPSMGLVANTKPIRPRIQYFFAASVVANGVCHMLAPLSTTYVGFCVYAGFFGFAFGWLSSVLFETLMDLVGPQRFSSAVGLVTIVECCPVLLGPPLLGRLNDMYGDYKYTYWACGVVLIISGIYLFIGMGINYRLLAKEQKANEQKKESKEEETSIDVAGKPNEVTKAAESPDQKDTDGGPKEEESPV
MCT1, sequence (P35613 140-385 partner): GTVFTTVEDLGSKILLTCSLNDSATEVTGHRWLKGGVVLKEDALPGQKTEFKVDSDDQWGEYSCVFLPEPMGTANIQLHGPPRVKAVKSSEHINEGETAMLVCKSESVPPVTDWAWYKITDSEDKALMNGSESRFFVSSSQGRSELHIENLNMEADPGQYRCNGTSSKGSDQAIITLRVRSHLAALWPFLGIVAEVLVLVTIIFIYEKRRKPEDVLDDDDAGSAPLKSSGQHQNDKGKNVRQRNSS

On to `COc1cccc(-c2cc(COC(C)(C)C(=O)O)nn2Cc2ccccc2Cl)c1` [Example 14, 2-[[1-[(2-Chlorophenyl)methyl]-5-(3-methoxyphenyl)pyrazol-3-yl]methoxy]-2-methyl-propanoic acid], for which the IC50 (usually the concentration that inhibits the measured activity by half) at MCT4 [1] was 26 nM; against MCT4 [2], 44 nM; at MCT4 [3], 30 nM; against MCT1 (Table 2), above 100000 nM; at MCT1 (Table 3), above 100000 nM. Moreover, the “Human microsome % 60 min” value in data set [4] came out at 82%. For the same compound, in data set [5], the “Mouse microsome % 60 min” value was determined as 95%.
As for `CC(C)(OCc1cc(-c2ccc(Cl)cc2)n(Cc2ccccn2)n1)C(=O)O` [Example 22, 2-[[5-(4-Chlorophenyl)-1-(2-pyridylmethyl)pyrazol-3-yl]methoxy]-2-methyl-propanoic acid], the half-maximal inhibitory concentration (IC50) stood at 14000 nM at MCT4 [1], 39000 nM against MCT4 [2] and 150000 nM against MCT1 (Table 2).
For the compound `CC(C)COc1cccc(-c2cc(COC(C)(C)C(=O)O)nn2Cc2ccccc2Cl)c1` [Example 27, 2-[[1-[(2-Chlorophenyl)methyl]-5-(3-isobutoxyphenyl)pyrazol-3-yl]methoxy]-2-methyl-propanoic acid], the IC50 was determined as 1 nM at MCT4 [3] and 5600 nM against MCT1 (Table 3). Further, the “Human microsome % 60 min” value in data set [4] came out at 43%. In data set [5], the “Mouse microsome % 60 min” value is given as 50%.
As for `CC(C)Oc1cccc(-c2cc(COC(C)(C)C(=O)O)nn2Cc2ccccc2Cl)c1` [Example 35, 2-[[1-[(2-Chlorophenyl)methyl]-5-(3-isopropoxyphenyl)pyrazol-3-yl]methoxy]-2-methyl-propanoic acid], the concentration for half-maximal inhibition (IC50) against MCT4 [3] is 5.2 nM; against MCT1 (Table 3) it was 59000 nM. In addition, the “Human microsome % 60 min” value in data set [4] is on record as 67%. Moreover, the “Mouse microsome % 60 min” value in data set [5] is 31%.
Turning to `COc1cccc(-c2cc(COC(C)(C)C(=O)O)nn2Cc2ccccc2OC)c1` [Example 36, 2-[[5-(3-Methoxyphenyl)-1-[(2-methoxyphenyl)methyl]pyrazol-3-yl]methoxy]-2-methyl-propanoic acid], the IC50 came out at 82 nM on MCT4 [3] and 50000 nM at MCT1 (Table 3). For the same compound, in data set [4], the “Human microsome % 60 min” value is on record as 85%. Moreover, in data set [5], the “Mouse microsome % 60 min” value is 99%.
The matching figures for `COc1cccc(-c2cc(COC(C)(C)C(=O)O)nn2Cc2ccccc2N(C)C)c1` [Example 38, 2-[[1-[[2-(Dimethylamino)phenyl]methyl]-5-(3-methoxyphenyl)pyrazol-3-yl]methoxy]-2-methyl-propanoic acid]: 48 nM, 60000 nM, 56% and 61%.
With `CC(C)(OCc1cc(-c2cccc(OC3CC3)c2)n(Cc2ccccc2Cl)n1)C(=O)O` [Example 39, 2-[[1-[(2-Chlorophenyl)methyl]-5-[3-(cyclopropoxy)phenyl]pyrazol-3-yl]methoxy]-2-methyl-propanoic acid], the IC50 came out at 5.4 nM against MCT4 [3] and 10000 nM on MCT1 (Table 3). For the same compound, the “Human microsome % 60 min” value in data set [4] is 89%. In data set [5], the “Mouse microsome % 60 min” value was determined as 88%.
The matching figures for `COc1cccc(-c2c(C)c(COC(C)(C)C(=O)O)nn2Cc2ccccc2Cl)c1` [Example 54, 2-({1-[(o-Chlorophenyl)methyl]-5-(m-methoxyphenyl)-4-methyl-1H-pyrazol-3-yl}methoxy)-2-methylpropionic acid]: 37 nM, 27000 nM, 59% and 95%.
Take `COc1cccc(-c2cc(COC(C)(C)C(=O)O)nn2-c2ccccc2Cl)c1` [Example 57, 2-[[1-(2-chlorophenyl)-5-(3-methoxyphenyl)-1H-pyrazol-3-yl]methoxy]-2-methylpropanoic acid]: in data set [4], the “Human microsome % 60 min” value was 80%. The compound further yielded an IC50 against MCT1 (Table 3) above 133000 nM. Also, in data set [5], the “Mouse microsome % 60 min” value came out at 100%.
Take `COc1ccc(-c2cc(COC(C)(C)C(=O)O)nn2Cc2ccccc2Cl)s1` [Example 64, 2-([1-[(2-Chlorophenyl)methyl]-5-(5-methoxythiophen-2-yl)-1H-pyrazol-3-yl]methoxy)-2-methylpropanoic Acid]: the IC50 at MCT4 [3] is 8.3 nM; against MCT1 (Table 3), 45000 nM. Also, the “Human microsome % 60 min” value in data set [4] stood at 82%. The “Mouse microsome % 60 min” value in data set [5] turned out to be 84%.
As for `COc1csc(-c2cc(COC(C)(C)C(=O)O)nn2Cc2ccccc2Cl)c1` [Example 65, 2-([1-[(2-Chlorophenyl)methyl]-5-(4-methoxythiophen-2-yl)-1H-pyrazol-3-yl]methoxy)-2-methylpropanoic Acid], the figures for the IC50 against MCT4 [3] and against MCT1 (Table 3) were 8 nM and 13000 nM, respectively. Besides, the “Human microsome % 60 min” value in data set [4] is reported as 78%. The “Mouse microsome % 60 min” value in data set [5] came out at 92%.
The matching figures for `COc1cc(-c2cc(COC(C)(C)C(=O)O)nn2Cc2ccccc2Cl)cs1` [Example 66, 2-([1-[(2-chlorophenyl)methyl]-5-(5-methoxythiophen-3-yl)-1H-pyrazol-3-yl]methoxy)-2-methylpropanoic Acid]: 7.8 nM, 45000 nM, 73% and 83%.
The matching figures for `CCC(C)(OCc1cc(-c2cccc(OC)c2)n(Cc2ccccc2Cl)n1)C(=O)O` (centres unmarked) [Example 68, 2-([1-[(2-Chlorophenyl)methyl]-5-(3-methoxyphenyl)-1H-pyrazol-3-yl]methoxy)-2-methylbutanoic Acid]: 9.1 nM, 26000 nM, 95% and 91%.
